# Key:
# [1] = target: T1, MYCN:MAX interaction (Homo sapiens, UniProt P04198); experiment: split Gaussia luciferase (GLuc) assay, MYCN:MAX; assay type: cell-based; details: 5 μM, HeLa cells
# T1 construct: replacing the existing Zip-gene (GCN4) with full length MYC, MYCN or MAX cDNA; expressed in transfected cells; host or cells: HeLa
# T1 sequence (P04198 1-464): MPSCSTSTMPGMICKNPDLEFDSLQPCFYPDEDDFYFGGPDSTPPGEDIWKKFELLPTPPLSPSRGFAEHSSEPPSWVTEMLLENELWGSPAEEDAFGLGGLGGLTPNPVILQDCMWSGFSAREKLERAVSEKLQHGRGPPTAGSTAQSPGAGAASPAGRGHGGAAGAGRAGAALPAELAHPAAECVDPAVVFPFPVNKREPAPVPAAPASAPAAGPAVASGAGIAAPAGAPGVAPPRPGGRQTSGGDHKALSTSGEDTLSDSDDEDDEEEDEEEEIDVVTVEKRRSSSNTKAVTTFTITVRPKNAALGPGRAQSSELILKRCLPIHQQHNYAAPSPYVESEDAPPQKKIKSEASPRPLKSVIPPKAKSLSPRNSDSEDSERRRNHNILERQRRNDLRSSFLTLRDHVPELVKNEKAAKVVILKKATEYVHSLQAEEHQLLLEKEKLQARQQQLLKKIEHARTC
# Experimental: A) Molecular structure of MYCMI-7. B-E) split Gaussia luciferase (GLuc) assay. MYC or MYCN and MAX Gluc constructs were co-transfected into HeLa cells together with a firefly luciferase vector. 24 hours post transfection cells were treated with compounds, and after another 17-24 hours cells were harvested and both GLuc and firefly luciferase activities were measured. The mean of three different experiments is shown. Treatment with: B) 5 μM of MYCMI-7, 64 μM 10058-F4 or 5 μM JQ1, respectively, C) 6.5 μM MYCMI-7 on cells expressing MYC:MAX GLuc vs. GCN4:GCN4 GLuc, D) 5 μM MYCMI-7 and 5 μM ellipticine. E) 5 μM MYCMI-7 for various time points. F) in situ proximity ligation assay (isPLA). […] MYC:GAL4 was used as negative control in the isPLA assay. G) Quantification of isPLA dots. (H) Co-immunoprecipitation (co-IP) of endogenous MYC and MAX proteins from MCF7 cells after treatment with 5 μM MYCMI-7 at various times. IP=immunoprecipitation; W=western blot. I) Chromatin immunoprecipitation (ChIP) of MYC at the ODC1 target gene promoter after treatment of cells with 5 μM MYCMI-7 for 6 hours. J) MYC target gene ODC1 expression after treatment with 5 μM MYCMI-7, quantified by qPCR. […] L) Recombinant MYC bHLHZip protein domain immobilized onto a CM5 chip was subjected to various concentrations of MYCMI-7 and the complex of MYCbHLHZip-MYCMI-7 was measured as response units by SPR. […]
# 0.2-0.4 μg of each GLuc-construct together with 0.05 μg pCMV-LUC (firefly luciferase) were used per transfection in 12 well plates. […] After 60 min incubation at room temperature 20 μM D-luciferin was added (substrate of Firefly luciferase) and luminescence was measured in a Lumat LB9501 (Berthold) or OmegaFluostar (BMG Labtech) luminometer. Directly after, Gaussia luciferase substrate Coelenterazine (Promega) was added to a final concentration of 20 μM in a mixture with “Stop n' Glow” (Promega) and the luciferase activity was measured. The ratio between Gaussia and Firefly luciferase values were calculated and normalized to DMSO-treated control cells.
# [2] = tested on: normal REFs; experiment: apoptosis assay (Cell Death Detection ELISA), normal REFs; assay type: cell-based, rat; details: 5 μM, 24 and 48 hours
# Experimental: (§1) FIG. 4: MYCMI-7 induces apoptosis in malignant cells and growth arrest in normal cells. A) Cell cycle distribution analysis by flow cytometry of MYC-regulated P493-6 cells and normal rat embryo fibroblasts (REFs). Left panel, P493-6 synchronized in G0 by 24 hours treatment of […] doxycycline. Doxycycline was removed and the cells were harvested 48 hours after the addition of fresh medium containing DMSO or 5 μM MYCMI-7. Right panel, flow cytometry analysis of normal REFs treated with DMSO or 5 μM MYCMI-7. B) Apoptosis assay using the Cell Death Detection ELISA^plus kit. Left panel, immortalized Rat1 fibroblasts with different MYC status after 24 hours of 5 μM MYCMI-7 treatment, middle panel and right panels, normal REFs and normal peripheral blood lymphocytes, respectively, after 24 and 48 hours of 5 μM MYCMI-7 treatment. C) Measurement of viability and apoptosis by Apo-Tox Glo Triplex assay in A375 melanoma cells after 3 days of treatment with MYCMI-7 with the indicated concentrations. […] E) NHDFs treated with 3 μM MYCMI-7 for 72 hrs. Viability was measured by trypan blue exclusion assay. F) Cell growth measured with Cyt62 assay of primary normal human epidermal melanocytes (NHEM) treated for 72 hours with MYCMI-7, G) Viability measured by trypan blue exclusion assay of NHEM after treatment for 72 hours with MYCMI-7.
# [3] = tested on: primary normal human epidermal melanocytes (NHEM); experiment: cell growth and trypan blue viability, NHEM; assay type: cell-based; details: 72 hours
# Experimental: as §1
# [4] = tested on: MDA-MB-231; experiment: MDA-MB-231 cells in cell culture; assay type: cell-based; details: Homo sapiens
# Experimental: We next studied the effects of MYCMI-7 in a xenograft model of the human basal-like breast cancer cell line MDA-MB-231. The cells were highly sensitive to MYCMI-7 treatment in cell culture (data not shown), with a GI50 around 1 μM.
# [5] = Caco2 cell assay
# From the text: (§2) First, we performed a pharmacokinetic study of the behavior of the molecule in mice.
# [6] = pharmacokinetics in mice; details: 6.25 mg/kg i.p.
# Experimental: Blood and brains were collected from three to four mice per group at 0, 1, 2, 4 and 24 hours following injection of 6.25 mg/kg ToM. Plasma samples were extracted using protein precipitation. Brain samples were extracted by homogenization in acetonitrile:DMSO, 95:5 using a gentleMACS Dissociater and gentleMACS™ M Tubes. The protein in the mouse plasma samples was removed by protein precipitation with acetonitrile containing the internal standard. After protein precipitation the study samples were centrifuged, and the resulting supernatant was analyzed. The acetonitrile:DMSO from the brain sample homogenates were spiked with the internal standard and then analyzed. All samples were analyzed by first separating them by reversed phase gradient LC and subsequently detecting them using positive electrospray ionization and multiple reaction monitoring (MRM).
# as §2
# [7] = oxidative metabolism in mouse liver microsomes
# From the text: as §2
structure (smiles),measurement,setting,value
"CCN(CC)CC[n+]1ccc2c(C)c3[nH]c4ccccc4c3c(C)c2c1 [MYCMI-7, 2-(5,11-Dimethyl-6H-25-pyrido[4,3-b]carbazol-2-yl)-N,N-diethylethanamine bromide]",inhibition of MYCN:MAX GLuc interaction,[1],inhibited
same,apoptosis,[2],did not induce apoptosis
same,cell death (trypan blue),[3],did not induce cell death
same,metabolic activity,[3],reduced metabolic activity
same,GI50,[4],~1000 nM
same,efflux,[5],strong efflux
same,detection in the brain,[6],could not be detected
same,stability against oxidative metabolism,[7],stable
